Data reported in PMC8840040, “Pharmacokinetic Characterization of the DDAH1 Inhibitors ZST316 and ZST152 in Mice Using a HPLC-MS/MS Method” (Molecules, 2022).

What was measured:
[1] = Stability in mouse plasma and urine; format: in vitro ADME; details: for stability in urine stored frozen: mice urine, −20 °C
Description: The extraction recovery, established on QCs at the concentrations of LLOQ (i.e., 5 ng/mL), at 15 and 250 ng/mL, fell in the range 88.9%–94.6% and 87.9%–117.5% for ZST316 and ZST152, respectively. The LLOQ in plasma was 5.0 ng/mL for both compounds, with precision of 7.1% and 4.1% and accuracy of 95.8% and 106.1% (n = 6) for ZST316 and ZST152, respectively (Table 1). We decided to validate this value as LLOQ even though the limit of detection (LOD) reached in the initial set up phase of the methods was established for both compounds at 1 ng/mL (S/N > 4.0). However, such sensitivity was not required as the expected range of activity (IC50) was markedly higher than the LLOQ value for both compounds. The linearity of the method, evaluated over three different analytical runs in the concentration range 5.0–500.0 ng/mL, was acceptable for both analytes, with an average coefficient of determination (R^2) of 0.990 and 0.992 for ZST316 and ZST152, respectively. […] Both ZST316 and ZST152 were stable in frozen plasma for at least one month at −20 °C. No chromatographic carry-over effect was observed injecting a blank sample after the highest standard calibration point. The method was considered suitable for preclinical pharmacokinetic investigations.
Both ZST316 and ZST152 were stable at 37 °C in mice urine for at least 24 h and stored frozen at −20°C for one month. No chromatographic carry-over effect was observed injecting a blank sample after the highest standard calibration point.

[2] = tested on: triple-negative breast cancer cells; details: cited from earlier work; for suppression of vasculogenic mimicry: in vitro, triple-negative breast cancer cells
[3] = tested on: cancer cells; details: cited from earlier work; for degradation in the culture media: culture media of cancer cell experiments
[4] = tested on: human recombinant DDAH1; design: method as in PMID 26420019; details: cited from earlier work; for IC50 / Ki: human recombinant DDAH1 expressed in HEK293T cells; for IC50: read-out: IC50 towards DDAH1; for Ki: read-out: Ki towards DDAH1
[5] = Urinary metabolites in 24 h urine by HPLC-MS/MS; format: in vivo, FVB mice
Description: The assessment of the urinary elimination after oral and intravenous administration, in the urine fraction collected 24 h post dose, is reported in Table 6. […] To further investigate this issue, we searched for the presence of urinary metabolites in the 24 h urine samples in one mouse per treatment group. We identified at least eight molecules most likely originating from the parent compounds (Table 7; see Supplementary Figure S1 for the hypothesized structures).
Mice were treated with ZST316 and ZST152 using a dose of 60 mg/Kg (oral gavage) and 30 mg/Kg (intravenous bolus). For pharmacokinetic sampling, blood was collected at 15 and 30 min, and 1, 3, 8, and 24 h post dose. Three mice were analyzed per each time point. After the animals were anesthetized with isoflurane, the blood was drained from the retro-orbital plexus into heparinized tubes, and then centrifuged for 10 min at 4000× g at 4 °C to separate plasma. A 24-h urine fraction was collected in three mice for each drug and route of administration. Plasma and urine samples were stored at −20 °C until analysis by HPLC-MS/MS.
[…] chromatography was performed using a series 200 HPLC system (Perkin Elmer, Waltham, MA, USA) under gradient conditions with separation on a HILIC column, 3 µm, 100 A, 2.1 × 150 mm (Waters, Milford, MA, USA), coupled with a 3 µm, 3.9 × 5.0 mm guard column of the same material at the flow rate of 0.2 mL/min. Gradient features: 10% mobile phase (MP) A (NH4HCO2 10 mM, 10% CH3CN, 0.1% HCOOH) and 90% MP B (CH3CN, 0.1% HCOOH) as the initial constant condition; then to 90% MP A in 6 min and the constant condition for 1.5 min. Return to the start condition in 0.5 min and conditioning for 5.5 min. Total run time: 13.5 min. Mass spectrometric detection was performed using an API 4000 triple quadrupole mass spectrometer (SCIEX, Framingham, MA, USA) supplied with a Turbo Ion Spray source set at 350 °C and −4200 V, analyzing biological samples with electrospray ionization (ESI) operating in negative ion mode. Purified air was used as nebulizer gas (Gas 1) and heater gas (Gas 2) and N2 was used as curtain gas and collision activated dissociation gas. They were set to 40, 50, 20, and 4 instrument units (psi), respectively. The declustering potential (DP) was set at −119 V and the collision exit potential (CXP) at –10 V. All parameters of the source were defined by direct infusion of ZST316 and ZST152 1 µg/mL in mobile phase B. The final quantification was carried out in Selected Reaction Monitoring (SRM) with the following transitions: m/z 307.9 → 208.0 (collision energy of −29.5 eV) for ZST316 and m/z 271.9 → 170.9 (collision energy −24.7 eV) for ZST152 (Figure 2 and Figure 3). Data were processed with the software package Analyst 1.6.2 (AB SCIEX).

[6] = after intravenous ZST152, total dose 1.410 mg, mouse #1, 24 h urine
[7] = after oral ZST152, total dose 1.158 mg, mouse #3, 24 h urine
[8] = after intravenous ZST316, total dose 1.326 mg, mouse #1, 24 h urine
[9] = after oral ZST316, total dose 1.308 mg, mouse #3, 24 h urine

SMILES	stability in mice urine at 37 °C [1]	stability in urine stored frozen [1]	suppression of vasculogenic mimicry [2]	penetration of the cell membrane of cancer cells and intracellular DDAH1 inhibition [3]	degradation in the culture media [3]	IC50 [4]	Ki [4]	% of Dose recovered in urine [5, 6]	Amount Recovered in urine [5, 6]	% of Dose recovered in urine [5, 7]	Amount Recovered in urine [5, 7]	suppression of in vitro vasculogenic mimicry and migration ([2]; MDA-MD-231 cells, ref recent demonstration by our group)	greater inhibitory activity towards DDAH1 compared to reference inhibitor L-257 ([4]; vs L-257)	% of Dose recovered in urine [5, 8]	Amount Recovered in urine [5, 8]	% of Dose recovered in urine [5, 9]	Amount Recovered in urine [5, 9]
COCCNC(=N)NCCC[C@H](N)c1noc(=O)[nH]1 [ZST152]	at least 24 h	one	suppress vasculogenic mimicry	able to successfully penetrate the cell membrane of cancer cells and inhibit DDAH1 intracellularly	did not significantly degrade	18 µM	7 µM	10.5%	148 µg	6.5%	75.0 µg						
COCCNC(=N)NCCC[C@H](N)C(=O)NS(C)(=O)=O [ZST316]	at least 24 h	one	suppress vasculogenic mimicry	able to successfully penetrate the cell membrane of cancer cells and inhibit DDAH1 intracellularly	did not significantly degrade	3 µM	1 µM					suppresses in vitro vasculogenic mimicry and migration	13 fold	3.1%	41.2 µg	2.2%	28.9 µg
